Measurements reported in patent EP0656889B1, “9-CHLOROPROSTAGLANDIN ESTERS AND AMIDES AND THEIR USE IN THE PREPARATION OF DRUGS” (SCHERING AKTIENGESELLSCHAFT, priority 1992, dated 1994).

What was measured:
haarlosen Ratten = assay: Measurement of skin blood flow (non-invasive laser Doppler method) after topical application, Beispiel 13; assay type: in vivo, Ratten (Wister; hairless ); settings: 4 h after local application on abdominal skin of anaesthetised (Urethan) hairless rats, solvent Isopropylmyristat in Ethanol 5/95 v/v
From the text: (§1) Messung der Hautdurchblutung
Die Hautdurchblutung wurde mit der nichtinvasiven Laser-Doppler Methode bestimmt. Die Messsungen wurden 4 Stunden nach der lokalen Applikation der Substanzen auf der Bauchhaut von narkotisierten ( Urethan ) haarlosen Ratten* durchgeführt. Als Lösungsmittel wurde Isopropylmyristat in Ethanol verwendet ( 5/95; v/v ).
* Für diese Untersuchungen wurden weibliche Ratten (Wister; hairless ) mit einem Körpergewicht von 200-250g verwendet.

Hairless Ratten = assay: Measurement of skin blood flow (laser Doppler flowmeter) after topical application, Beispiel 12; assay type: in vivo; settings: topical on abdomen of anaesthetised female hairless rats, solvent 5% Isopropylmyristat in Ethanol, measured 2 and 4 h after application (time not given)
Description: as §1
Hairless Ratten (weiblich) werden gewogen (200-250g), mit 0,5ml 25% Urethan in 0,9% NaCl /100g/kg (2/3 i.p., 1/3 s.c.) narkotisiert und auf eine vorgeheizte Wärmeplatte der Fa. Jowitherm gelegt.
Auf dem Abdomen wird eine kreisförmige Fläche von 34mm Durchmesser ca. 2cm unterhalb der Sternumspitze markiert. Pro Tier wird eine Testsubstanz appliziert, die mit dem Randomisierungsprogramm RDRK zugeordnet wurde. Als Lösungsmittel wird 5% Isopropylmyristat in Ethanol verwendet. […] der jeweiligen Testlösung werden mit einer Eppendorf-Pipette gleichmäßig aufgetragen. Danach wird die behandelte Haut nochmals in drei Meßflächen von jeweils 18mm Druchmesser unterteilt und markiert. Die Hautdurchblutung wird 2 und 4 Stunden ( und gegebenenfalls 6 Stunden) nach der Applikation mit einem Laser Doppler Flowmeter (Firma Perimed) gemessen. Es werden an jedem Tier Dreifachmessungen an den markierten Stellen durchgeführt.

[1] = applied concentration 0,001 Prozent
[2] = applied concentration 0,003 Prozent

## CC(C)OC(=O)CCC/C=C\C[C@@H]1[C@@H](/C=C/[C@@H](O)C2CCCCC2)[C@H](O)C[C@H]1Cl [Beispiel 7, (5Z,13E)-(9R,11R,15S)-9-Chlor-15-cydohexyl-11,15-dihydroxy-16,17,18,19,20-pentanor-5,13-prostadiensäureisopropylester]
Haarlosen Ratten; [1]
  Steigerung der Hautdurchblutung in Prozent: 93 Prozent
Haarlosen Ratten; [2]
  Steigerung der Hautdurchblutung in Prozent: 183 Prozent

## CCOC(=O)COC/C=C\C[C@@H]1[C@@H](/C=C/[C@@H](O)C2CCCCC2)[C@H](O)C[C@H]1Cl [Beispiel 9, (5Z,13E)-(9R,11R,15S)-9-Chlor-3-oxa-15-cyclohexyl-11,15-dihydroxy-16,17,18,19,20-pentanor-5,13-prostadiensäureethylester]
Haarlosen Ratten; [1]
  Steigerung der Hautdurchblutung in Prozent: 200 Prozent
Haarlosen Ratten; [2]
  Steigerung der Hautdurchblutung in Prozent: 325 Prozent

## O=C(CCC/C=C\C[C@@H]1[C@@H](/C=C/[C@@H](O)C2CCCCC2)[C@H](O)C[C@H]1Cl)OCC(=O)c1ccccc1 [Beispiel 1, (5Z,13E)-(9R,11R,15S)-9-Chlor-15-cyclohexyl-11,15-dihydroxy-16,17,18,19,20-pentanor-5,13-prostadiensäurephenacylester]
Hairless Ratten; [1]
  Steigerung der Hautdurchblutung in Prozent: 50 Prozent
Hairless Ratten; [2]
  Steigerung der Hautdurchblutung in Prozent: 160 Prozent

## CC(C)OC(=O)COC/C=C\C[C@@H]1[C@@H](/C=C/[C@@H](O)C2CCCCC2)[C@H](O)C[C@H]1Cl [Beispiel 10, (5Z,13E)-(9R,11R,15S)-9-Chlor-3-oxa-15-cyclohexyl-11,15-dihydroxy-16,17,18,19,20-pentanor-5,13-prostadiensäureisopropylester]
Haarlosen Ratten; [1]
  Steigerung der Hautdurchblutung in Prozent: 232 Prozent
Haarlosen Ratten; [2]
  Steigerung der Hautdurchblutung in Prozent: 307 Prozent

## CCOC(=O)CCC/C=C\C[C@@H]1[C@@H](/C=C/[C@@H](O)C2CCCCC2)[C@H](O)C[C@H]1Cl [Beispiel 6, (5Z,13E)-(9R,11R,15S)-9-Chlor-15-cyclohexyl-11,15-dihydroxy-16,17,18,19,20-pentanor-5,13-prostadiensäureethylester]
Haarlosen Ratten; [1]
  Steigerung der Hautdurchblutung in Prozent: 115 Prozent
Haarlosen Ratten; [2]
  Steigerung der Hautdurchblutung in Prozent: 197 Prozent

## O=C(COC/C=C\C[C@@H]1[C@@H](/C=C/[C@@H](O)C2CCCCC2)[C@H](O)C[C@H]1Cl)OCC(=O)c1ccccc1 [Beispiel 3, (5Z,13E)-(9R,11R,15S)-9-Chlor-3-oxa-15-cyclohexyl-11,15-dihydroxy-16,17,18,19,20-pentanor-5,13-prostadiensäurephenacylester]
Hairless Ratten; [1]
  Steigerung der Hautdurchblutung in Prozent: 139 Prozent
Hairless Ratten; [2]
  Steigerung der Hautdurchblutung in Prozent: 146 Prozent
